This note sets out measurements from patent US9573913B2, “Cathepsin cysteine protease inhibitors” (Merck Sharp & Dohme Corp., priority 2013, dated 2017).

One experiment deals with human cathepsin K (UniProt P43236). The experiment in a line: Cathepsin K Assay (hrbCat K). It counts as biochemical. The settings on record: Z-Leu-Arg-AMC substrate, pH 5.5, 15 min preincubation; read-out: hrbCat K (IP (nM)). An outline of the steps: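 Human cathepsin K (0.4 nM) was preincubated 15 min at room temperature with compound in 50 mM MES pH 5.5, 2.5 mM EDTA, 2.5 mM DTT and 10% DMSO. Inhibition was fitted to a dose-response model.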

The target of a further experiment is T1, human cathepsin F (Homo sapiens, UniProt Q9UBX1).
T1 sequence (Q9UBX1 271-484): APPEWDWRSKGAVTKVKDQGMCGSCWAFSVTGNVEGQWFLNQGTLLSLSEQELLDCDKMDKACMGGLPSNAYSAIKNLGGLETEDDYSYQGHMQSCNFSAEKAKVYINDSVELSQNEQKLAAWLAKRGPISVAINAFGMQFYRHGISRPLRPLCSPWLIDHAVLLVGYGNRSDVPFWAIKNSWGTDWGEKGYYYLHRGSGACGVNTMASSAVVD
The experiment in a line: Cathepsin F assay (hCat F). Format: biochemical. The settings on record: Z-Phe-Arg-AMC substrate, pH 5.5, 15 min preincubation; read-out: hCat F (IP (nM)). An outline of the steps: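 AMC release from Z-Phe-Arg-AMC, added at 8 μM, was monitored fluorometrically (360/460 nm) for 20 min after 10 nM enzyme and compound had been preincubated 15 min at room temperature. Buffer: MES 50 mM pH 5.5, EDTA and DTT 2.5 mM each, 10% DMSO. Compound DMSO dilutions spanned 500–0.025 μM (3-fold). Dose-response fitting gave % inhibition.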

Some results are limits rather than exact numbers.

Consider `N#CC1(NC(=O)[C@@H]2CCCC[C@H]2c2nc(Nc3ccc(F)cc3F)sc2-c2ccc(N3CCS(=O)(=O)CC3)cc2)CC1` [Example 181, (1R,2R)-N-(1-cyanocyclopropyl)-2-(2-((2,4-difluorophenyl)amino)-5-(4-(1,1-dioxidothiomorpho-lino)phenyl)thiazol-4-yl)cyclohexane-carboxamide], for which the results for the IC50 at human cathepsin K and at human cathepsin F were 31.9 nM and 3490 nM, respectively.

With `N#CN=S1(=O)CCN(c2ccc(-c3sc(-c4ccc(F)cc4)nc3[C@@H]3CCCC[C@H]3C(=O)NC3(C#N)CC3)cc2)CC1` [Example 182, (1R,2R)-N-(1-cyanocyclopropyl)-2-(5-(4-(1-(cyanoimino)-1-oxidothiomorpholino)phenyl)-2-(4-fluorophenyl)thiazol-4-yl)cyclohexane-carboxamide], the IC50 is 2.72 nM on human cathepsin K and 3330 nM at human cathepsin F.

As for `N#CC1(NC(=O)[C@@H]2CCCC[C@H]2c2nc(C(F)(F)c3ccccc3)sc2-c2ccc(N3CCS(=O)(=O)CC3)cc2)CC1` [Example 183, (1R,2R)-N-(1-cyanocyclopropyl)-2-(2-(difluoro(phenyl)methyl)-5-(4-(1,1-dioxidothiomorpho-lino)phenyl)thiazol-4-yl)cyclohexane-carboxamide], the IC50 on human cathepsin K stood at 5.7 nM; on human cathepsin F it was 810 nM.

With `N#CC1(NC(=O)[C@@H]2CCCC[C@H]2c2nc(C3(c4ccc(F)cc4)CC3)sc2-c2ccc(N3CCS(=O)(=O)CC3)cc2)CC1` [Example 184, (1R,2R)-N-(1-cyanocyclopropyl)-2-(5-(4-(1,1-dioxidothiomorpho-lino)phenyl)-2-(1-(4-fluorophenyl)cyclo-propyl)thiazol-4-yl)cyclohexane-carboxamide], the IC50 at human cathepsin K is 5.2 nM; at human cathepsin F it was 1580 nM.

As to `N#CC1(NC(=O)[C@@H]2CCCC[C@H]2c2nc(Oc3ccc(F)cc3)sc2-c2ccc(N3CCS(=O)(=O)CC3)cc2)CC1` [Example 189, (1R,2R)-N-(1-cyanocyclopropyl)-2-(5-(4-(1,1-dioxidothiomorpho-lino)phenyl)-2-(4-fluorophenoxy)thia-zol-4-yl)cyclohexane-carboxamide], the IC50 was determined as 5.1 nM at human cathepsin K and 788 nM at human cathepsin F.

Take `N#CC1(NC(=O)[C@@H]2CCCC[C@H]2c2nc(N)sc2-c2ccc(N3CCS(=O)(=O)CC3)cc2)CC1` [Example 190, (1R,2R)-2-(2-amino-5-(4-(1,1-dioxidothiomorpho-lino)phenyl)thiazol-4-yl)-N-(1-cyanocyclopropyl) cyclohexanecarbox-amide]: the figures for the IC50 at human cathepsin K and on human cathepsin F were 13.2 nM and 7410 nM, respectively.

On to `Cc1ccc(-c2nc([C@@H]3CC[C@H](F)C[C@H]3C(=O)N[C@@H](C)C#N)c(-c3ccc(N4CCS(=O)(=O)CC4)cc3)s2)nn1` [Example 195, (1R,2R,5S)-N-((S)-1-cyanoethyl)-2-(5-(4-(1,1-dioxidothiomorpho-lino)phenyl)-2-(6-methylpyridazin-3-yl)thiazol-4-yl)-5-fluorocyclohexane-carboxamide], for which the IC50 on human cathepsin K worked out at 1.4 nM; at human cathepsin F, 1940 nM.

Regarding `Cc1ccc(-c2nc([C@@H]3CC[C@H](F)C[C@H]3C(=O)NC3(C#N)CC3)c(-c3ccc(N4CCS(=O)(=O)CC4)cc3)s2)nn1` [Example 196, (1R,2R,5S)-N-(1-cyanocyclopropyl)-2-(5-(4-(1,1-dioxidothiomorpho-lino)phenyl)-2-(6-methylpyridazin-3-yl)thiazol-4-yl)-5-fluorocyclohexane-carboxamide], the IC50 at human cathepsin K was 2.4 nM; at human cathepsin F, 2020 nM.

For the molecule `N#CC1(NC(=O)[C@@H]2C[C@@H](F)CC[C@H]2c2nc(-c3ccc(C(F)(F)F)nn3)sc2-c2ccc(N3CCS(=O)(=O)CC3)cc2)CC1` [Example 197, (1R,2R,5S)-N-(1-cyanocyclopropyl)-2-(5-(4-(1,1-dioxidothiomorpho-lino)phenyl)-2-(6-(trifluoromethyl)pyridazin-3-yl)thiazol-4-yl)-5-fluorocyclohexane-carboxamide], the figures for the IC50 at human cathepsin K and on human cathepsin F were 512 nM and at least 10000 nM, respectively.
